How the values were obtained:
[1] = tested on: post-SE rats; experiment: Kainic acid induced post-status epilepticus model, video-EEG seizure analysis; format: in vivo, rat
Description: Pumps were filled with either Z944 to deliver a daily dose of 60 mg/kg, levetiracetam to deliver a daily dose of 200 mg/kg or vehicle. For the drug tolerability study, osmotic pumps continuously either Z944, levetiracetam or vehicle for 7 days and for the post-SE study osmotic pumps delivered continuously the different treatments for 28 days.
FIG. 11 summarizes the different methods used on this experimental paradigm.
Animals were implanted with subdural EEG recording electrodes and one week after surgery, the animals were connected using cables that allowed them free movement around their cage. A repeated low dose KA administration protocol was used. Rats were injected i.p. with an initial dose of KA 7.5 mg/kg plus 3 ml of normal saline to prevent dehydration. Animals were monitored for 45 minutes for EEG and behavioural seizures based on the Racine scale. […] This was repeated up to 2 times every 45 minutes. An animal was eliminated from the experiment if it didn't show a stable self-sustained SE after a maximum KA total dose of 15 mg/kg. Two sham groups were treated identically but received saline injections instead of KA. After four hours of sustained electroencephalographic and behavioural seizures the animals were randomly allocated to one of the five treatment groups: sham+vehicle (n=6), sham+Z944 (n=6), post-SE+vehicle (n=8), post-SE+Z944 (n=8), post-SE+levetiracetam (n=9).
Animals were anesthetized and implanted with subcutaneous osmotic pumps containing either vehicle Z944 (60 mg/kg/day), or levetiracetam (200 mg/kg/day) that delivered the treatment continuously for 4 weeks. Immediately after the pump implantation, SE was stopped with diazepam (5 mg/kg/dose).
vEEG recordings commenced at least 4 h prior the induction of SE to provide baseline recordings. The video-EEG recordings continued for the whole duration of the treatment period, i.e. four weeks after the termination of the SE. […] EEG analysis was performed in a blinded manner and confirmed by two different observers. All EEG recordings were visually and manually annotated using Profusion 3 software. A seizure was defined as an episode of rhythmic spiking activity that was three times the baseline amplitude and a frequency >5 Hz that lasted at least 10 s. The end of a seizure was determined as the last spike. The average number of seizures per day, average seizure duration and seizure class (severity) were analysed.

[2] = tested on: GAERS (genetic rat model of GGE with absence seizures); experiment: Systemic administration in GAERS, EEG spike-and-wave discharges; format: in vivo; details: 30 mg/kg intraperitoneal; shift from 8 Hz with ethosuximide 100 mg/kg and vehicle
Description: In vivo anti-seizure activity of Z941 and Z944 was assessed in eight female epileptic GAERS (180 to 250 g and 18 to 26 weeks). Rats were implanted with extradural recording electrodes. EEG data were acquired at a sampling rate of 256 Hz unfiltered using Compumedics ProFusion digital EEG acquisition software. After 60-min habituation, rats received intraperitoneal injections of drug, and after a further 15 min, the EEG was acquired for 120 min—the test period. […] Over a 5-week period, each rat received all treatments (crossover design) in a randomized manner with a 48-hour washout period between dosing of test compound, control vehicle, and positive control articles. […] Clinical observations of neurotoxic adverse effects were assessed every 15 min throughout the 120-min test period. These were quantified according to an ordinal scale of 0 to 4: 0, no sedation, normal movement; 1, slight sedation, slow movement but alert when startled; 2, mildly sedate, reduced struggle to restraint; 3, sedate, not moving in cage, but does respond to provocation; 4, very sedate, catatonic and unable to stand when provoked. The eight scores (taken for one experiment per rat) were then averaged, and group means were calculated for each treatment. Animals were also monitored daily for general health throughout the study period (that is, weight gain and fur condition). […]

CC(C)(C)NC(=O)CN1CCC(CNC(=O)c2cc(F)cc(Cl)c2)CC1 [Z944]
seizures on EEG after drug washout (seizures per day, duration, severity) ([1]; 60 mg/kg/day for 4 weeks, EEG after 4 weeks from drug washout): Anti-Epileptogenic | seizures on EEG during treatment (seizures per day, duration, severity) ([1]; 60 mg/kg/day, during the 4 weeks of continuous treatment after SE): Anti-Epileptogenic Effects | number of seizures in each animal that developed seizures ([1]; in two weeks of vEEG after drug washout): one | neurological adverse effects after prolonged treatment ([1]; osmotic pump 4 weeks, Z944 60 mg/kg/day, levetiracetam 200 mg/kg/day): only transient and minor neurological adverse effects | treated animals that developed seizures ([1]; two weeks of vEEG after 4 weeks drug washout, n=8): two of the eight | peak cycle frequency power during seizure activity (FFT) [2]: 6.5 Hz

— patent US20210128537A1, “T-TYPE CALCIUM CHANNEL MODULATORS AND METHODS OF USE THEREOF” (Praxis Precision Medicines, inc., priority 2016, published 2021)
